Test results published in US20250388544A1, “HETEROAROMATIC INHIBITORS OF ASTACIN PROTEINASES” (VIVORYON THERAPEUTICS N.V., priority 2019, published 2025).

What was measured:
Assay type in all cases: biochemical
[1] = target: T1, hMeprin β (Homo sapiens, UniProt Q16820); assay: Enzymatic assay, quenched peptide substrate cleavage, method A; details: geometric mean (geometric SD factor in parentheses), read-out: Meprin beta IC50
T1 sequence (Q16820 62-701): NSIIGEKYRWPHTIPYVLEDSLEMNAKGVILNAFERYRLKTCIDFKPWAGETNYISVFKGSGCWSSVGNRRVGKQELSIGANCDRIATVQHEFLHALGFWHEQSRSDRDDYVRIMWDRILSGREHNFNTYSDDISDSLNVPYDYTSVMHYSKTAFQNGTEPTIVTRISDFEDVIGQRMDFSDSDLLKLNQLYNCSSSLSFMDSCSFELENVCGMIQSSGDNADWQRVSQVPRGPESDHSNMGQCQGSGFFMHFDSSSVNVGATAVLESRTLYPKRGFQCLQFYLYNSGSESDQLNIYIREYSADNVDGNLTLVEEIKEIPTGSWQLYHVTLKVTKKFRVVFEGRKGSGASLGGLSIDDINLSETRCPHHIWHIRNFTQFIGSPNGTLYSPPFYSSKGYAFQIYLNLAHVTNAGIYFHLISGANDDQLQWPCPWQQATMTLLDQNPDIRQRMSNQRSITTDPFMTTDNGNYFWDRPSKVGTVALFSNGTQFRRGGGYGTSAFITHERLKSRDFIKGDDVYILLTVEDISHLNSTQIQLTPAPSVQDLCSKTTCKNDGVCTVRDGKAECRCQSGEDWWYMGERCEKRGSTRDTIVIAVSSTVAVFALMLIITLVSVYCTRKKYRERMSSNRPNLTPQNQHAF
Protocol: (§1) The determination of enzymatic activity was based on the cleavage of internally quenched peptide substrates. A typical assay of 250 μl total volume measured in black 96 well plates consisted of 100 μl buffer, 50 μl enzyme at a final concentration of 5e-8 M to 2e-10 M, 50 μl substrate (0.15 to 80 μM, in buffer, 0.5% DMSO) and 50 μl inhibitor solution (in buffer, 1% DMSO). In case of 125 μl assay volume (black 96 half area well plates) all volumes were cut in half. Enzymatic activity of ADAMs was measured in 384 well plates with 60 μl total assay volume consisting of 20 μl inhibitor, 20 μl buffer, 10 μl enzyme and 10 μl substrate.
(§2) Based on method B Ki^(app) values were determined using Morrison's equation. All measurements were performed using a fluorescence plate reader (FLUOSTAR OPTIMA, BMG Labtech) at 30° C. The kinetic parameters were determined at least in duplicates on separate days. The excitation/emission wavelength was 340/420 nm. The kinetic data was evaluated using GRAFIT software (version 7.0.3, Erithacus Software).

[2] = target: T2, hMeprin α (Homo sapiens, UniProt Q16819); assay: as above; details: geometric mean (geometric SD factor in parentheses), read-out: Meprin alpha IC50
T2 sequence (Q16819 66-746): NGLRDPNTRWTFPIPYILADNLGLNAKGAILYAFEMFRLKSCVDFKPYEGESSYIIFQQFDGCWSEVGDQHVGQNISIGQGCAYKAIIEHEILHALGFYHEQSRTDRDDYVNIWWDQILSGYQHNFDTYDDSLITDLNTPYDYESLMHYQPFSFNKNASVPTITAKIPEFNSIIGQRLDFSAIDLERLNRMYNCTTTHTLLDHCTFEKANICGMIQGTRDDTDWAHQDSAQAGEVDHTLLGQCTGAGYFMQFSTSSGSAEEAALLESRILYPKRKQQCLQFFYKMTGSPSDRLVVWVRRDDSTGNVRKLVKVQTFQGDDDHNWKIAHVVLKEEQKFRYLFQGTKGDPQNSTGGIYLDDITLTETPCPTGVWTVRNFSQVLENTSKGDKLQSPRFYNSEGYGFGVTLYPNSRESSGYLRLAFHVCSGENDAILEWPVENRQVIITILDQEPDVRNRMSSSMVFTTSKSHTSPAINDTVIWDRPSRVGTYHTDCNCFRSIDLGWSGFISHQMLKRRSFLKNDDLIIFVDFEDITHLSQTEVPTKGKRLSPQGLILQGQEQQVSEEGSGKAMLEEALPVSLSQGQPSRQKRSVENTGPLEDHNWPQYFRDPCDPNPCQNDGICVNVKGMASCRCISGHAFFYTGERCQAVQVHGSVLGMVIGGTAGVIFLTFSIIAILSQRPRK
Protocol: as §1, §2

[3] = target: T1, hMeprin β; assay: Enzymatic assay, quenched peptide substrate cleavage, method B; details: geometric mean (geometric SD factor in parentheses); for Ki: Morrison's equation, read-out: Meprin beta Ki(app); for IC50: read-out: Meprin beta IC50
Protocol: as §1, §2

[4] = target: T2, hMeprin α; assay: as above; details: geometric mean (geometric SD factor in parentheses); for Ki: Morrison's equation, read-out: Meprin alpha Ki(app); for IC50: read-out: Meprin alpha IC50
Protocol: as §1, §2

| SMILES | IC50 [1] | IC50 [2] | Ki [3] | IC50 [3] | Ki [4] | IC50 [4] |
| --- | --- | --- | --- | --- | --- | --- |
| O=C(CCn1c(-c2ccccc2)ccc1-c1ccccc1)NO [Example 10, 3-(2,5-Diphenylpyrrol-1-yl)propanehydroxamic acid] | 15000 nM | 727 nM |  |  |  |  |
| O=C(CCn1c(-c2ccccc2)cc2ccccc21)NO [Example 26, 3-(2-Phenylindol-1-yl)propanehydroxamic acid] | 13400 nM | 475 nM |  |  |  |  |
| O=C(CNc1c(-c2ccccc2)nc2ccccn12)NO [Example 29, 2-[(2-Phenylimidazo[1,2-a]pyridin-3-yl)amino]-ethanehydroxamic acid] | 7120 nM | 793 nM |  |  |  |  |
| O=C(CNc1c(-c2ccc3c(c2)OCCO3)nc2ccccn12)NO [Example 32, 2-[[2-(2,3-Dihydro-1,4-benzodioxin-6-yl)imidazo-[1,2-a]pyridin-3-yl]amino]ethanehydroxamic acid] | 3140 nM | 655 nM |  |  |  |  |
| O=C(CCn1c(-c2ccccc2)nc2ccccc21)NO [Example 14, 3-(2-Phenylbenzimidazol-1-yl)propanehydroxamic acid] | 28000 nM | 1130 nM | 31700 nM | 32400 nM | 701 nM | 708 nM |
| O=C(CCn1c(-c2ccccc2)nnc1-c1ccccc1)NO [Example 8, 3-(3,5-Diphenyl-1,2,4-triazol-4-yl)propanehydroxamic acid] | 42300 nM | 353 nM |  |  |  |  |
| O=C(Cc1c2ccccc2nn1-c1ccccc1)NO [Example 34, 2-(2-Phenylindazol-3-yl)ethanehydroxamic acid] | 3370 nM | 244 nM |  |  |  |  |
| O=C(Cc1c(-c2ccccc2)nn(-c2ccccc2)c1-c1ccccc1)NO [Example 36, 2-(1,3,5-Triphenylpyrazol-4-yl)ethanehydroxamic acid] | 2380 nM | 17 nM |  |  |  |  |

These reach a lower IC50 [1]. Values come first.

| IC50 [1] | IC50 [2] | Ki [3] | IC50 [3] | Ki [4] | IC50 [4] | SMILES |
| --- | --- | --- | --- | --- | --- | --- |
| 1450 nM | 11 nM |  |  |  |  | O=C(Cc1c(-c2ccccc2)nnn1-c1ccccc1)NO [Example 11, 2-(3,5-Diphenyltriazol-4-yl)ethanehydroxamic acid] |
| 1220 nM | 9 nM |  |  |  |  | Cn1nc(-c2ccccc2)c(CC(=O)NO)c1-c1ccccc1 [Example 35, 2-(1-Methyl-3,5-diphenyl-pyrazol-4-yl)ethanehydroxamic acid] |
| 1200 nM | 105 nM |  |  |  |  | O=C(Cc1c(-c2ccccc2)[nH]c2ccccc12)NO [Example 27, 2-(2-Phenyl-1H-indol-3-yl)ethanehydroxamic acid] |
| 486 nM | 2 nM |  |  |  |  | O=C(Cc1c(-c2ccccc2)ncn1-c1ccccc1)NO [Example 12, 2-(3,5-Diphenylimidazol-4-yl)ethanehydroxamic acid] |
| 254 nM | 2 nM |  |  |  |  | O=C(Cc1c(-c2ccccc2)nn(Cc2ccccc2)c1-c1ccccc1)NO [Example 39, 2-(1-Benzyl-3,5-diphenyl-pyrazol-4-yl)ethanehydroxamic acid] |
| 214 nM | 693 nM |  |  |  |  | O=C(CNc1c(-c2cccc(C(=O)O)c2)nc2ccccn12)NO [Example 31, 3-[3-[[2-(Hydroxyamino)-2-oxo-ethyl]amino]-imidazo[1,2-a]pyridin-2-yl]benzoic acid] |
| 176 nM | 2280 nM |  |  |  |  | O=C(CNc1c(-c2ccc(C(=O)O)cc2)nc2ccccn12)NO [Example 30, 4-[3-[[2-(Hydroxyamino)-2-oxo-ethyl]amino]-imidazo[1,2-a]pyridin-2-yl]benzoic acid] |
| 154 nM | 21 nM |  |  |  |  | O=C(Cc1c(-c2ccccc2)nn(-c2ccc(C(=O)O)cc2)c1-c1ccccc1)NO [Example 37, 4-[4-[2-(Hydroxyamino)-2-oxo-ethyl]-3,5-diphenyl-pyrazol-1-yl]benzoic acid] |
| 100 nM | 16 nM |  |  |  |  | O=C(Cc1c(-c2ccccc2)nn(-c2cccc(C(=O)O)c2)c1-c1ccccc1)NO [Example 38, 3-[4-[2-(Hydroxyamino)-2-oxo-ethyl]-3,5-diphenyl-pyrazol-1-yl]benzoic acid] |
| 23 nM | 135 nM | 80 nM | 81 nM | 90 nM | 92 nM | O=C(Cc1c(-c2ccc(Cl)c(O)c2F)nc2ccccn12)NO [Example 28, 2-[2-(4-Chloro-2-fluoro-3-hydroxy-phenyl)imidazo-[1,2-a]pyridin-3-yl]ethanehydroxamic acid] |
